# “Also recorded” adds a separate entry of the source.
# Key:
# Caco-2 cells [1] = experiment: Extracellular acidification rate and oxygen consumption rate in real time (Seahorse XFe96); format: cell-based, human; settings: Caco-2, 100 µM; for Effect on max OCR: 24 h (Figures 3C, 4A-D); for Effect on basal mitochondrial OCR / Effect on glycolysis (ECAR) / Effect on glycolysis, cluster in dendrogram: 24 h; for Effect on basal mitochondrial OCR: compared to control (Figures 3B, 4A-D); for Effect on glycolysis (ECAR): compared to control (Figures 3B, 4E-H); for Effect on glycolysis, cluster in dendrogram: clusters of Figure 3C; for Effect on proton leak-driven OCR: 24 h (Figure 4A-D)
# Procedure: We previously described how ortho-carbonyl hydroquinone scaffolds inhibit oxidative phosphorylation in breast cancer cells. Since the reduction in glucose utilization and metabolism in intestinal cells is a promising target for T2DM treatment, the effect of these compounds on mitochondrial respiration and glycolysis in Caco-2 cells was determined. […] The effect of ortho-carbonyl hydroquinone series (100 µM) on five parameters of mitochondrial respiration (basal OCR, max OCR, spare capacity, ATP-linked OCR, and proton leak-driven OCR), and two of glycolysis (glycolytic capacity and glycolysis), is represented in a dendrogram (Figure 3C). […] OCR: compounds 1, 6, 7, and 9. […] No correlations between OCR and ECAR parameters, α-glucosidase activity inhibition, or ORAC were observed (Supplementary Figure S1).
# In contrast, compound 10 increases the proton leak-OCR and decreases max OCR (Figure 4A–D).
# To analyze the extracellular acidification rate (ECAR), Caco-2 cells (10,000 cells/well) were seeded on XFe96 V3-PS multi-well plates and kept for 24 h at 37 °C in 5% CO2 with a DMEM culture medium supplemented with FBS. After 24 h, the cells were stimulated by compounds at 100 μM for 24 h. Then, the culture medium was replaced with assay media (unbuffered DMEM without red phenol, with 4 mM glutamine and 10 mM glucose, pH = 7.4) 1 h before the assay. Glycolysis was evaluated by the sequential injection of 10 mM glucose, 1 µM oligomycin, and 100 mM 2-deoxy-D-glucose (2-DG), and ECAR was analyzed using specific excitation and emission wavelengths of protons (470/530 nm). To study the mitochondrial function, the sequential injection of 1 μM oligomycin, 250 nM FCCP, 1 μM rotenone, and 1 μM antimycin A was added. The oxygen consumption rate (OCR) measurements were made with the specific excitation and emission wavelengths of the fluorescent probes for oxygen (532/650 nm) using a Seahorse XFe96 Analyzer (Seahorse Agilent, USA), and OCR and ECAR data were normalized by protein content/well, which was determined using a BCA kit. Each experiment was performed at least in triplicate. The OCR/ECAR data analysis and dendrograms were performed using XLSTAT software (version 2023.2.1414, Lumivero, New York, NY, USA).
# α-glucosidase = α-glucosidase inhibitory activity (p-nitrophenyl α-D-glucopyranoside substrate); format: biochemical; settings: for pIC50 (α-glucosidase): pIC50 = −log[IC50], Figure 2A; for IC50: pH 6.9, 37 °C, 15 min, mean ± SD of three experiments, read-out: Inhibition of α-Glucosidase Activity IC50
# Procedure: The inhibition of α-glucosidase was determined following a previous method [62] using p-nitrophenyl α-D-glucopyranoside as a substrate. The reaction mixture contained 160 µL of 0.1 M sodium phosphate buffer (pH = 6.9), 5 µL of enzyme (5.46 U/mL), and polyphenolic extract (0.17–1.36 µg/mL). After the pre-incubation of the reaction mixture on ice for 5 min, the enzyme reaction was started by adding 5 µL of 25 mM p-nitrophenyl α-D-glucopyranoside into this mixture. The reaction was incubated for 15 min at 37 °C. Then, 80 µL of 0.2 M sodium carbonate was added. The absorbance was measured at 405 nm in a microplate reader (Biotek ELx808, Agilent, Santa Clara, CA, USA). Enzyme inhibition was calculated using the following equation: % inhibition = (A0 − As)/A0 × 100, where A0 is the absorbance of the control (blank, without extract) and As is the absorbance in presence of the extract. IC50 values denote the µg GAE/mL required to inhibit the enzyme by 50%.
# [2] = ORAC assay (oxygen radical absorbance capacity, ORAC-FL); settings: radical scavenging against peroxyl radicals; mean ± SD of three experiments
# Procedure: The radical-scavenging activities of the hydroquinone series against peroxyl radicals were assessed (ORAC assays). […] Similarly, for the series with the gem-diethyl group on ring B (compounds 6–10), compound 6 presents the highest antioxidant capacity (7.0 + 0.3 mol TE/mol compound). […] The replacement of the gem-dimethyl with the gem-diethyl group also decreases the antioxidant capacity.
# The antioxidant activity was determined by ORAC (oxygen radical absorbance capacity) assays. Briefly, the antioxidant capacity for ORAC-FL was estimated by measuring the changes in fluorescence after 120 min of reaction with the radical. Assays were performed using a 96-well microplate in a Synergy H1 hybrid multi-mode microplate reader (Biotek, Winooski, VT, USA), and the results were expressed as µmol Trolox 100 g^−1 DW. Three replicates were accomplished for each analysis.
# Caco-2 cells [3] = experiment: MTT assay, cell proliferation; format: cell-based, human; settings: Caco-2, 24 h treatment, 1-100 µM (Figure 3A)
# Procedure: We evaluate the effect of ortho-carbonyl hydroquinones 1–10 on the intestinal Caco-2 cell line at 24 h of treatment.
# Caco-2 cells were grown in Dulbecco’s modified Eagle’s Medium/Nutrient Mixture F-12 (D-MEM/F-12), supplemented with 5% fetal bovine serum (FBS), penicillin (100 IU/mL), streptomycin (100 μg/mL), and nonessential amino acid solution 1% (GIBCO, Thermo Fisher Scientific, Grand Island). The culture media contained no exogenous pyruvate supplementation, and the cells were maintained in a humidified atmosphere at 37 °C and 5% CO2.
# The cell proliferation was determined using the MTT assay. The cells were incubated in 96-well plates at 7000 cells per well and incubated for 24 h. The cells were treated for 24 h with compounds (1, 5, 10, 30, 50, and 100 μM). After treatment, the culture medium was removed, and the cells were incubated with MTT for 1 h at 37 °C. Finally, 100 μL of DMSO was added and measured by spectrophotometry at 570 nm, as previously described.
# Caco-2 cells [4] = experiment: Menadione-induced cytosolic (DHE) and mitochondrial (MitoSOX) ROS by flow cytometry; format: cell-based, human; settings: Caco-2, 100 and 200 µM for 24 h, then 25 µM menadione 1 h; for Effect on menadione-induced mitochondrial ROS production: MitoSOX Red
# Procedure: Using menadione as an ROS inducer, the preventive effect of compounds 5 and 10 on mitochondrial and cytosolic ROS production was evaluated. No changes in the mitochondrial ROS production were observed (Figure 4I).
# The mtROS and ROS levels were measured using MitoSOX® Red Mitochondrial Superoxide (Invitrogen, Carlsbad, CA, USA) and Invitrogen™ Dihydroethidium (Hydroethidine, DHE) probes, respectively. The Caco-2 cells were incubated in 12-well plates at 50,000 cells for 24 h. The cells were treated with compounds 5 and 10 at 100 μM and 200 μM for 24 h. Next, the cells were incubated with 25 μM menadione 25 μM for 1 h, and then the cells were washed with PBS and incubated with MitoSOX Red® (5 µM) or DHE (5 μM) for 30 min. Then, they were recollected, and washed, and the fluorescence was detected by flow cytometry according to Urra et al., 2018 [31].
Compound,pIC50 (α-glucosidase) (α-glucosidase),IC50 (α-glucosidase) [µM],melting point [°C],Effect on max OCR (Caco-2 cells [1]),Effect on basal mitochondrial OCR (Caco-2 cells [1]),Effect on glycolysis (ECAR) (Caco-2 cells [1]),"Effect on glycolysis, cluster in dendrogram (Caco-2 cells [1])",ORAC [2] [mol TE/mol Compound],Effect on MTT reduction (Caco-2 cells [3]),Effect on menadione-dependent cytosolic ROS production (Caco-2 cells [4]; DHE),Effect on menadione-induced mitochondrial ROS production (Caco-2 cells [4]),Effect on proton leak-driven OCR (Caco-2 cells [1]),Effect on max OCR (Caco-2 cells [1]; listed as compound 10)
"CC1(C)C=CC(=O)c2c(O)ccc(O)c21 [Compound 1, 5,8-Dihydroxy-4,4-dimethylnaphthalen-1(4H)-one]",3.72,–,–,strong inhibitory effect on max. OCR,reduces the basal mitoOCR,increases ECAR,glycolysis enhancers,–,–,–,–,–,–
"Cc1cc(O)c2c(c1O)C(C)(C)C=CC2=O [Compound 2, 5,8-Dihydroxy-4,4,6-trimethylnaphthalen-1(4H)-one]",3.85,140,–,reduced effect on max OCR,–,reduces the glycolysis,glycolysis inhibitors,5.5 ± 0.2,–,–,–,–,–
"Cc1c(C)c(O)c2c(c1O)C(=O)C=CC2(C)C [Compound 4, 5,8-Dihydroxy-4,4,6,7-tetramethylnaphthalen-1(4H)-one]",3.61,245,–,reduced effect on max OCR,lacking effect on OCR,increases the glycolysis,glycolysis inhibitors,1.05 ± 0.03,–,–,–,–,–
"CCC1(CC)C=CC(=O)c2c(O)ccc(O)c21 [Compound 6, 4,4-Diethyl-5,8-dihydroxynaphthalen-1(4H)-one]",3.71,195,–,strong inhibitory effect on max. OCR,reduces the basal mitoOCR,increases ECAR,glycolysis enhancers,7.0 ± 0.3,decreased the MTT reduction,–,–,–,–
"CCC1(CC)C=CC(=O)c2c(O)cc(C)c(O)c21 [Compound 7, 4,4-Diethyl-5,8-dihydroxy-6-methylnaphthalen-1(4H)-one]",3.96,110,–,strong inhibitory effect on max. OCR,lacking effect on OCR,increases the glycolysis,glycolysis enhancers,7.2 ± 0.4,–,–,–,–,–
"CCC1(CC)C=CC(=O)c2c(O)c(C)c(C)c(O)c21 [Compound 9, 4,4-Diethyl-5,8-dihydroxy-6,7-dimethylnaphthalen-1(4H)-one]",3.29,> 500,174.9 to 179.8,strong inhibitory effect on max. OCR,–,reduces the glycolysis,glycolysis enhancers,0.83 ± 0.03,–,–,–,–,–

# Now from value to compound, other results behind:
pIC50 (α-glucosidase) (α-glucosidase),IC50 (α-glucosidase) [µM],melting point [°C],Compound,Effect on max OCR (Caco-2 cells [1]),Effect on basal mitochondrial OCR (Caco-2 cells [1]),Effect on glycolysis (ECAR) (Caco-2 cells [1]),"Effect on glycolysis, cluster in dendrogram (Caco-2 cells [1])",ORAC [2] [mol TE/mol Compound],Effect on MTT reduction (Caco-2 cells [3]),Effect on menadione-dependent cytosolic ROS production (Caco-2 cells [4]; DHE),Effect on menadione-induced mitochondrial ROS production (Caco-2 cells [4]),Effect on proton leak-driven OCR (Caco-2 cells [1]),Effect on max OCR (Caco-2 cells [1]; listed as compound 10)
3.26,> 500,204,"Cc1cc(O)c2c(c1O)C(=O)C=CC2(C)C [Compound 3, 5,8-Dihydroxy-4,4,7-trimethylnaphthalen-1(4H)-one]",reduced effect on max OCR,–,reduces the glycolysis,glycolysis inhibitors,3.9 ± 0.1,–,–,–,–,–
3.98,103,199.9 to 201.5,"CC1=CC(C)(C)c2c(O)c(C)c(C)c(O)c2C1=O [Compound 5, 5,8-Dihydroxy-2,4,4,6,7-pentamethylnaphthalen-1(4H)-one]",reduced effect on max OCR; also recorded: reduces,reduces,reduces the glycolysis; also recorded: significantly reduce the glycolysis,glycolysis inhibitors,0.37 ± 0.01,significantly increased the MTT reduction,significantly prevented,No changes,without affecting,–
4.20,60,198.2,"CCC1(CC)C=CC(=O)c2c(O)c(C)cc(O)c21 [Compound 8, 4,4-Diethyl-5,8-dihydroxy-7-methylnaphthalen-1(4H)-one]",reduced effect on max OCR,–,reduces the glycolysis,glycolysis inhibitors,5.9 ± 0.3,–,–,–,–,–
4.10,78,–,"CCC1(CC)C=C(C)C(=O)c2c(O)c(C)c(C)c(O)c21 [Compound 10, 4,4-Diethyl-5,8-dihydroxy-2,6,7-trimethylnaphthalen-1(4H)-one]",reduced effect on max OCR,–,reduces the glycolysis; also recorded: significantly reduce the glycolysis,glycolysis inhibitors,0.10 ± 0.01,significantly increased the MTT reduction,–,No changes,increases,decreases

# Source: PMC11313435, “Identification of Antioxidant Methyl Derivatives of Ortho-Carbonyl Hydroquinones That Reduce Caco-2 Cell Energetic Metabolism and Alpha-Glucosidase Activity” (International Journal of Molecular Sciences, 2024)
